Test results published in PubChem BioAssay AID2060609 (Molecular Pharmacology Branch, DTP, NCI, 2025).
“And” between values parts separate entries of the source, which are not always exact repeats. Identical values can stand only once.

Tested on: 855422-203-R-J1-PDC complex spheroids, viability
Test: Anticancer human tumor 855422-203-R-J1-PDC patient-derived bladder carcinoma cell line growth inhibition [CLK]
Conditions: for viability, T/C: stronger effect = lower value
Outline: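 Patient-derived tumor cells grown as complex spheroids with HUVEC endothelial cells and mesenchymal stem cells, treated with drug combinations. Concentrations descend in half-log steps from near clinical Cmax, or from 10 microM if Cmax unknown.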
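Note: spheroids exposed to drugs for seven days before readout.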
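Throughout, for viability, T/C: 100% = DMSO vehicle control wells.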

**Q.** Which results are given for `COc1cccc2c1C(=O)c1c(O)c3c(c(O)c1C2=O)CC(O)(C(=O)CO)CC3OC1CC(N)C(O)C(C)O1` (centres undefined) + CN1CCN(c2cc(C(=O)Nc3cc4cc(-c5cnn(C)c5)ccc4cn3)ccn2)CC1?
**A.** IC50 (curve of first compound, second compound 0.0316 µM): < 0.0316 µM; IC50 (curve of first compound, second compound 0.1 µM): < 0.0316 µM; IC50 (curve of first compound, second compound 0.316 µM): < 0.0316 µM; IC50 (curve of first compound, second compound 1 µM): < 0.0316 µM; IC50 (curve of first compound, second compound 3.16 µM): < 0.0316 µM; IC50 (curve of first compound, second compound 10 µM): < 0.0316 µM; viability, T/C (second compound 0.0316 µM, first compound 0.0316 µM): 8.97%; viability, T/C (second compound 0.0316 µM, first compound 0.1 µM): 3.16%; viability, T/C (second compound 0.0316 µM, first compound 0.316 µM): 0.95%; viability, T/C (second compound 0.0316 µM, first compound 1 µM): 0.46%; viability, T/C (second compound 0.0316 µM, first compound 3.16 µM): 0.59%; viability, T/C (second compound 0.0316 µM, first compound 10 µM): 1.01%; viability, T/C (second compound 0.1 µM, first compound 0.0316 µM): 8.75%; viability, T/C (second compound 0.1 µM, first compound 0.1 µM): 1.14%; viability, T/C (second compound 0.1 µM, first compound 0.316 µM): 0.71%; viability, T/C (second compound 0.1 µM, first compound 1 µM): 1.31%; viability, T/C (second compound 0.1 µM, first compound 3.16 µM): 0.35%; viability, T/C (second compound 0.1 µM, first compound 10 µM): 0.34%; viability, T/C (second compound 0.316 µM, first compound 0.0316 µM): 1.19%; viability, T/C (second compound 0.316 µM, first compound 0.1 µM): 1.5%; viability, T/C (second compound 0.316 µM, first compound 0.316 µM): 0.36%; viability, T/C (second compound 0.316 µM, first compound 1 µM): 0.28%; viability, T/C (second compound 0.316 µM, first compound 3.16 µM): 0.35%; viability, T/C (second compound 0.316 µM, first compound 10 µM): 0.27%; viability, T/C (second compound 1 µM, first compound 0.0316 µM): 0.21%; viability, T/C (second compound 1 µM, first compound 0.1 µM): 0.29%; viability, T/C (second compound 1 µM, first compound 0.316 µM): 0.23%; viability, T/C (second compound 1 µM, first compound 1 µM): 0.31%; viability, T/C (second compound 1 µM, first compound 3.16 µM): 0.39%; viability, T/C (second compound 1 µM, first compound 10 µM): 0.81%; viability, T/C (second compound 3.16 µM, first compound 0.0316 µM): 0.29%; viability, T/C (second compound 3.16 µM, first compound 0.1 µM): 0.57%; viability, T/C (second compound 3.16 µM, first compound 0.316 µM): 0.22%; viability, T/C (second compound 3.16 µM, first compound 1 µM): 0.22%; viability, T/C (second compound 3.16 µM, first compound 3.16 µM): 0.42%; viability, T/C (second compound 3.16 µM, first compound 10 µM): 0.22%; viability, T/C (second compound 10 µM, first compound 0.0316 µM): 0.09%; viability, T/C (second compound 10 µM, first compound 0.1 µM): 0.17%; viability, T/C (second compound 10 µM, first compound 0.316 µM): 1.68%; viability, T/C (second compound 10 µM, first compound 1 µM): 0.13%; viability, T/C (second compound 10 µM, first compound 3.16 µM): 0.76%; viability, T/C (second compound 10 µM, first compound 10 µM): 1.02%

**Q.** Which viability, T/C (compound 0.0316 µM) does the source give for `C#Cc1c(F)ccc2cc(O)cc(-c3ncc4c(N5CC6CCC(C5)N6)nc(OCC56CCCN5CC(F)C6)nc4c3F)c12` (centres undefined) here?
**A.** 118% and 106%

**Q.** What about the viability, T/C (compound 0.1 µM) of the same compound?
**A.** 92.7% and 95.3%

**Q.** What about the viability, T/C (compound 0.316 µM) of the same compound?
**A.** 117% and 113%

**Q.** What about the viability, T/C (compound 1 µM) of the same compound?
**A.** 114% and 97.7%

**Q.** And the viability, T/C (compound 3.16 µM)?
**A.** 119% and 104%

**Q.** And the viability, T/C (compound 10 µM)?
**A.** 98.7% and 112%

**Q.** And the IC50 (curve of compound)?
**A.** > 10 µM

**Q.** With `CN1CCN(c2cc(C(=O)Nc3cc4cc(-c5cnn(C)c5)ccc4cn3)ccn2)CC1` as the compound, how does the viability, T/C (compound 0.1 µM) read?
**A.** 94% [middle of 12 runs]

**Q.** What about the viability, T/C (compound 0.316 µM) of the same compound?
**A.** 9.83% [middle of 12 runs]

**Q.** And the viability, T/C (compound 1 µM)?
**A.** 0.34% [middle of 11 runs]

**Q.** What about the viability, T/C (compound 3.16 µM) of the same compound?
**A.** 0.57% [middle of 11 runs]

**Q.** And the viability, T/C (compound 10 µM)?
**A.** 0.34% [middle of 11 runs]

**Q.** What about the IC50 (compound alone, run of 07/31/2023) of the same compound?
**A.** 181 nM [middle of 9 runs]

**Q.** For `COC1C=CCC(C)C(C)S(=O)(=O)NC(=O)c2ccc3c(c2)N(CC2CCC21)CC1(CCCc2cc(Cl)ccc21)CO3` (centres undefined), which viability, T/C (compound 0.0316 µM) is on record?
**A.** 96% and 134%

**Q.** And the viability, T/C (compound 0.1 µM)?
**A.** 105% and 90.2%

**Q.** And the viability, T/C (compound 0.316 µM)?
**A.** 111% and 128%

**Q.** What about the viability, T/C (compound 1 µM) of the same compound?
**A.** 103% and 137%

**Q.** What about the viability, T/C (compound 3.16 µM) of the same compound?
**A.** 119% and 191%

**Q.** What about the viability, T/C (compound 10 µM) of the same compound?
**A.** 6.05% and 30.3%

**Q.** What about the IC50 (curve of compound) of the same compound?
**A.** 6.06 µM and 8.07 µM

**Q.** With `CC1COCCN1c1cc(C2(S(C)(=N)=O)CC2)nc(-c2ccnc3[nH]ccc23)n1` (centres undefined) as the compound, how does the viability, T/C (compound 0.0316 µM) read?
**A.** 127% and 114%

**Q.** What about the viability, T/C (compound 0.1 µM) of the same compound?
**A.** 108% and 101%

**Q.** And the viability, T/C (compound 0.316 µM)?
**A.** 115% and 113%

**Q.** And the viability, T/C (compound 1 µM)?
**A.** 93.2% and 103%

**Q.** And the viability, T/C (compound 3.16 µM)?
**A.** 32.1% and 23.6%

**Q.** What about the viability, T/C (compound 10 µM) of the same compound?
**A.** 11.2% and 8.31%

**Q.** What about the IC50 (curve of compound) of the same compound?
**A.** 2.26 µM and 2.16 µM
